Experimental data reported in patent publication US10849983B2, “Development of soluble albuminated curcumin for application in cancer therapy” (Sree Chitra Tirunal Institute for Medical Sciences and …, priority 2013, dated 2020).

How the values were obtained:
[1] = tested on: prostate cancer (PC-3) cells; test: PC-3 cells, phase contrast microscopy and Live/Dead (Annexin V) assay; type: cell-based, human; details: 24h, phase contrast microscopy, curcumin in DMSO
Description: (§1) To study the effect of the drug conjugate on cancer cells, Lung (A549), Leukemia (K562), & Prostate (PC-3) cell lines were procured from NCCS, Pune. On receipt, the cell lines were sub cultured and sufficient numbers of vials were stored in […]. deep freezer. To study the effect of curcumin on angiogenesis, primary endothelial cells isolated from sheep was used. The effects on primary human fibroblast cells were also studied. Each cell line was maintained in their respective recommended media. A549, PC3 and fibroblast cells were maintained in DMEM media with 10% FBS. K562 cells were maintained in IMDM media supplemented with 10% FBS and endothelial cells in MCDB media with 10% FBS, L-ascorbic acid, VEGF and L-Glutamine.
(§2) The effect of curcumin was analyzed on cell apoptosis and cycle arrest. Different concentrations of the alb-cur conjugate were added into the cultures. The concentrations employed were 250 μM, 500 μM, and 1000 μM which were achieved by adding stock prepared by dissolving lyophilized curcumin-albumin conjugate.
(§3) The efficacy of the loaded drug was analyzed using solid tumor cell lines of prostate cancer (PC-3) [FIGS. 4 & 5] lung cancer (A549) [FIGS. 6 & 7B] and suspension cell line of leukemia (K562) [FIGS. 7A & 8]. The toxicity of the conjugated albumin-curcumin complex was assed by Live/Dead assay using Annexin V in primary fibroblasts. […]

lung cancer (A549) cells = test: A549 lung cancer cells, phase contrast microscopy, cell cycle analysis and apoptosis by flow cytometry; type: cell-based, human; details: 48h, Flowjo
Description: as §1, §2, §3

SMILES	morphology of PC-3 cells [1]	cell cycle distribution of A549 cells (positive control) (lung cancer (A549) cells)
COc1cc(/C=C/C(=O)CC(=O)/C=C/c2ccc(O)c(OC)c2)ccc1O [cur/DMSO, curcumin]	normal morphological features	
O=c1[nH]cc(F)c(=O)[nH]1 [Example 5-FU]		slight increase in the population of cells in the S phase
